Patent US20110281909A1, “SUBSTITUTED QUINOLINE DERIVATIVES AS H1 RECEPTOR ANTAGONISTS” (GLAXO GROUP LIMITED, priority 2007, published 2011)
Where a name gives a salt, the structure may show the parent alone.

Assays:
human H1 receptor = target: T1, human H1 receptor (Homo sapiens, UniProt P35367); test: Histamine H1 functional antagonist assay: antagonist duration after washout; assay type: cell-based; details: at one or more time points after washout
T1 construct: expressed in transfected cells
Protocol: The human H1 receptor is cloned using known procedures described in the literature [Biochem. Biophys. Res. Commun., 201(2):894 (1994)]. Chinese hamster ovary (CHO) cells stably expressing the human H1 receptor are generated according to known procedures described in the literature [Br. J. Pharmacol., 117(6):1071 (1996)]. […] Following the 30 min antagonist incubation period, the cells are washed two or three times with 200 μl of PBS and then 100 μl Tyrodes buffer is added to each well to initiate antagonist dissociation. […] After this period, the cells are challenged with histamine in the FLIPR™ as described above. The dose ratio at each time point is used to determine the fractional H1 receptor occupancy by the following equation: fractional receptor occupancy=(DR-1)/DR. The decrease in receptor occupancy over time approximates to a straight line and is analysed by linear regression. The slope of this straight line fit is used as an index of the dissociation rate of the antagonist. The dose ratios for antagonist treated cells and for antagonist treated and washed cells at each time point are used to calculate a relative dose ratio (rel DR) which is also used as an index of antagonist duration. […]

[1] = tested on: histamine-induced congestion; test: Intranasal challenge method: whole body plethysmography; assay type: in vivo, Female Dunkin-Hartley guinea pigs; details: guinea pig, dosed intranasally at 1 mg/ml either 3 hr or 24 hr before histamine challenge
Protocol: Intranasal Challenge Method: Whole Body Plethysmography
Female Dunkin-Hartley guinea pigs 150-250 g are sensitised twice daily for 5 days (week 1) with ovalbumin (OVA) and aluminium hydroxide (Al(OH)3 or Alum) in physiological saline, 25 μl/nostril. Solution is made up at 20 μg/ml OVA, 180 mg/ml Alum.
Pretreatment with test compound is performed at various times prior to histamine challenge. Efficacy dose-response curves are determined 1 hr and/or 3 hr after dosing whereas duration of action may be studied up to 7 days post dose (for example, at 24 hours). Test compounds are formulated as solutions in 0.9% sterile saline or suspensions in 0.9% sterile saline/tween80. […]
After the stipulated pre-dose time has been reached, guinea pigs are re-anaesthetised with isoflurane and dosed with either 10 mM or 15 mM histamine or phosphate-buffered saline (PBS), (25 μl per nostril). […] Data are analysed using ANOVA with post-hoc Fishers LSD test (general linear models, Statistica®) and finally Hochberg adjustment. Inhibition of histamine-induced congestion is determined by statistically significant differences between the mean responses of compound pre-treated groups compared to the vehicle pre-treated, histamine-challenged group.

T1 sequence (P35367 whole entry): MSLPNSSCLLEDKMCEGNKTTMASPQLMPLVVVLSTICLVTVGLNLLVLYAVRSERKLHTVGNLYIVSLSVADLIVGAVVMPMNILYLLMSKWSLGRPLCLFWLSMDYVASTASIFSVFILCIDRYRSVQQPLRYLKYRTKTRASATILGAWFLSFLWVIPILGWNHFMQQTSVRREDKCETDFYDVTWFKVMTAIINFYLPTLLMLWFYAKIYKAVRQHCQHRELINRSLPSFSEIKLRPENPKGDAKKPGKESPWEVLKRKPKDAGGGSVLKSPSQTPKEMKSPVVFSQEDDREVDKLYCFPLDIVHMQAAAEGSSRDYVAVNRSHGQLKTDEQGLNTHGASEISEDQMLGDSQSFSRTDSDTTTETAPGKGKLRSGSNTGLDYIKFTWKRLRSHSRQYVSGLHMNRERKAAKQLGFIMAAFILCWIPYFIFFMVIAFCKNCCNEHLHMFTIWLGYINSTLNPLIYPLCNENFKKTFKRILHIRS

| SMILES | duration of action compared with azelastine in the histamine H1 functional antagonist assay (human H1 receptor) | inhibition of the response to histamine challenge (duration of action) in the intranasal challenge model [1] |
| --- | --- | --- |
| CCCCc1cc(OC2CCN(CCCCNS(=O)(=O)CC(C)C)CC2)c2ncccc2c1 [Example 26, N-(4-{4-[(6-Butyl-8-quinolinyl)oxy]-1-piperidinyl}butyl)-2-methyl-1-propanesulfonamide, dihydrochloride salt] | longer duration of action than azelastine |  |
| CN1CCCC(n2nc(Cc3ccc(Cl)cc3)c3ccccc3c2=O)CC1 (centres unmarked) [azelastine] |  | failed to show a similar duration of action |
